Test results taken from ChEMBL document CHEMBL1201862, “PubChem BioAssay data set” (2004).
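A five-concentration, 48-hour dose response in 96-well plates underlies each endpoint, interpolated linearly between surrounding concentrations. GI50: concentration for 50% inhibition of growth.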 Activity calls are given as the source filed them. Cut-off read from the data, not from the text of the source: active = GI50 up to about 1.1 µM and inactive = higher.

Columns and labels:
Test in all cases: NCI anticancer screen, dose series, 48 h
IGROV-1 = tested on: IGROV-1
KM-20L2 = tested on: KM-20L2
SNB-75 = tested on: SNB-75
SF-295 = tested on: SF-295
UACC-62 = tested on: UACC-62
OVCAR-8 = tested on: OVCAR-8
HOP-18 = tested on: HOP-18
UACC-257 = tested on: UACC-257
KM12 = tested on: KM12
DLD-1 = tested on: DLD-1
CCRF-CEM = tested on: CCRF-CEM
786-0 = tested on: 786-0
MOLT-4 = tested on: MOLT-4
Malme-3M = tested on: Malme-3M
EKVX = tested on: EKVX
A549 = tested on: A549
A498 = tested on: A498
HCT-116 = tested on: HCT-116
TK-10 = tested on: TK-10
NCI-H460 = tested on: NCI-H460
NCI-H226 = tested on: NCI-H226
UO-31 = tested on: UO-31
SK-MEL-5 = tested on: SK-MEL-5
CAKI-1 = tested on: CAKI-1
NCI-H23 = tested on: NCI-H23
HCT-15 = tested on: HCT-15
LXFL 529 = tested on: LXFL 529
OVCAR-3 = tested on: OVCAR-3
SNB-19 = tested on: SNB-19
SK-MEL-2 = tested on: SK-MEL-2
ACHN = tested on: ACHN
HT-29 = tested on: HT-29
DMS-273 = tested on: DMS-273
COLO 205 = tested on: COLO 205
NCI-H522 = tested on: NCI-H522
RPMI-8226 = tested on: RPMI-8226
SF-539 = tested on: SF-539
M14 = tested on: M14
SW-620 = tested on: SW-620
DMS-114 = tested on: DMS-114
HOP-92 = tested on: HOP-92
HCC 2998 = tested on: HCC 2998
SF-268 = tested on: SF-268
U-251 = tested on: U-251
SK-OV-3 = tested on: SK-OV-3
OVCAR-5 = tested on: OVCAR-5
RXF 393 = tested on: RXF 393
RXF 631 = tested on: RXF 631
SNB-78 = tested on: SNB-78
LOX IMVI = tested on: LOX IMVI
SR = tested on: SR
SN12C = tested on: SN12C
HOP-62 = tested on: HOP-62
XF498 = tested on: XF498
K562 = tested on: K562
OVCAR-4 = tested on: OVCAR-4
HL-60 = tested on: HL-60
SK-MEL-28 = tested on: SK-MEL-28

CC1=NN(C(=O)CC(=O)Nc2ccccc2)C(=O)C1/N=N/c1ccc(S(N)(=O)=O)cc1 (centres undefined)
GI50 (IGROV-1): 34.7 µM (inactive)
GI50 (KM-20L2): > 100 µM (inactive)
GI50 (SNB-75): 60.8 µM (inactive)
GI50 (SF-295): > 100 µM (inactive)
GI50 (UACC-62): 32.8 µM (inactive)
GI50 (OVCAR-8): 61.5 µM (inactive)
GI50 (HOP-18): > 100 µM (inactive)
GI50 (UACC-257): > 100 µM (inactive)
GI50 (KM12): > 100 µM (inactive)
GI50 (DLD-1): 95.1 µM (inactive)
GI50 (CCRF-CEM): 46 µM (inactive)
GI50 (786-0): 66.5 µM (inactive)
GI50 (MOLT-4): 37.5 µM (inactive)
GI50 (Malme-3M): > 100 µM (inactive)
GI50 (EKVX): > 100 µM (inactive)
GI50 (A549): > 100 µM (inactive)
GI50 (A498): > 100 µM (inactive)
GI50 (HCT-116): 48 µM (inactive)
GI50 (TK-10): > 100 µM (inactive)
GI50 (NCI-H460): 92.5 µM (inactive)
GI50 (NCI-H226): 39.1 µM (inactive)
GI50 (UO-31): 57.8 µM (inactive)
GI50 (SK-MEL-5): 36.4 µM (inactive)
GI50 (CAKI-1): 50.8 µM (inactive)
GI50 (NCI-H23): 78 µM (inactive)
GI50 (HCT-15): > 100 µM
GI50 (LXFL 529): 81.7 µM (inactive)
GI50 (OVCAR-3): 66.2 µM (inactive)
GI50 (SNB-19): 71.6 µM (inactive)
GI50 (SK-MEL-2): > 100 µM (inactive)
GI50 (ACHN): > 100 µM (inactive)
GI50 (HT-29): > 100 µM (inactive)
GI50 (DMS-273): 63.5 µM (inactive)
GI50 (COLO 205): > 100 µM (inactive)
GI50 (NCI-H522): 39 µM (inactive)
GI50 (RPMI-8226): 84.5 µM (inactive)
GI50 (SF-539): 99.8 µM (inactive)
GI50 (M14): 80.2 µM (inactive)
GI50 (SW-620): 59.4 µM (inactive)
GI50 (DMS-114): 63.8 µM (inactive)
GI50 (HOP-92): > 100 µM (inactive)
GI50 (HCC 2998): 49.9 µM (inactive)
GI50 (SF-268): 80.9 µM (inactive)
GI50 (U-251): 56.4 µM (inactive)
GI50 (SK-OV-3): > 100 µM (inactive)
GI50 (OVCAR-5): > 100 µM (inactive)
GI50 (RXF 393): 70.8 µM (inactive)
GI50 (RXF 631): 91.6 µM (inactive)
GI50 (SNB-78): 88.9 µM (inactive)
GI50 (LOX IMVI): 75.5 µM (inactive)
GI50 (SR): 56.9 µM (inactive)
GI50 (SN12C): 41.9 µM (inactive)
GI50 (HOP-62): 88.5 µM (inactive)
GI50 (XF498): 56.8 µM (inactive)
GI50 (K562): 35.2 µM (inactive)
GI50 (OVCAR-4): 60.4 µM (inactive)
GI50 (HL-60): 18 µM (inactive)
GI50 (SK-MEL-28): 61.4 µM (inactive)

Cc1ccccc1NC(=O)C(=O)C(C#N)c1ccc(Cl)cc1 (centres undefined)
GI50 (IGROV-1): 63.7 µM (inactive)
GI50 (KM-20L2): 33.6 µM (inactive)
GI50 (SNB-75): > 100 µM (inactive)
GI50 (SF-295): 64.3 µM (inactive)
GI50 (UACC-62): 37.4 µM (inactive)
GI50 (OVCAR-8): 46.6 µM (inactive)
GI50 (HOP-18): 47.8 µM (inactive)
GI50 (UACC-257): > 100 µM (inactive)
GI50 (KM12): 44.6 µM (inactive)
GI50 (DLD-1): 41.8 µM (inactive)
GI50 (CCRF-CEM): 64 µM (inactive)
GI50 (786-0): 28 µM (inactive)
GI50 (MOLT-4): 52.6 µM (inactive)
GI50 (Malme-3M): > 100 µM (inactive)
GI50 (EKVX): > 100 µM (inactive)
GI50 (A549): 95.5 µM (inactive)
GI50 (A498): > 100 µM (inactive)
GI50 (HCT-116): 34 µM (inactive)
GI50 (TK-10): 81.5 µM (inactive)
GI50 (NCI-H460): 21.3 µM (inactive)
GI50 (NCI-H226): 78.5 µM (inactive)
GI50 (UO-31): 57.7 µM (inactive)
GI50 (SK-MEL-5): 41.8 µM (inactive)
GI50 (CAKI-1): > 100 µM (inactive)
GI50 (NCI-H23): 56.5 µM (inactive)
GI50 (HCT-15): 18.7 µM
GI50 (LXFL 529): 51.4 µM (inactive)
GI50 (OVCAR-3): > 100 µM (inactive)
GI50 (SNB-19): 63.2 µM (inactive)
GI50 (SK-MEL-2): 56.5 µM (inactive)
GI50 (ACHN): 74.1 µM (inactive)
GI50 (HT-29): 28.8 µM (inactive)
GI50 (DMS-273): 33 µM (inactive)
GI50 (COLO 205): 31.3 µM (inactive)
GI50 (NCI-H522): 50.7 µM (inactive)
GI50 (RPMI-8226): 22.6 µM (inactive)
GI50 (SF-539): 30.4 µM (inactive)
GI50 (M14): 45.9 µM (inactive)
GI50 (SW-620): 15.4 µM (inactive)
GI50 (DMS-114): 39.8 µM (inactive)
GI50 (HOP-92): 45.8 µM (inactive)
GI50 (HCC 2998): 19.6 µM (inactive)
GI50 (SF-268): 69.8 µM (inactive)
GI50 (U-251): 51.1 µM (inactive)
GI50 (SK-OV-3): > 100 µM (inactive)
GI50 (OVCAR-5): 54 µM (inactive)
GI50 (RXF 393): > 100 µM (inactive)
GI50 (RXF 631): 34.7 µM (inactive)
GI50 (SNB-78): > 100 µM (inactive)
GI50 (LOX IMVI): 17.3 µM (inactive)
GI50 (SN12C): 44.9 µM (inactive)
GI50 (HOP-62): > 100 µM (inactive)
GI50 (XF498): 33.8 µM (inactive)
GI50 (K562): 29.1 µM (inactive)
GI50 (HL-60): 27.8 µM (inactive)
GI50 (SK-MEL-28): 67.5 µM (inactive)
